Measurements taken from PubChem BioAssay (NCI).
“And” between values parts separate entries of the source, which are not always exact repeats. Identical values can stand only once.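 Compound exposure: 48 hours, 5 concentrations, 96-well plates. GI50 marks 50% less growth. TGI is the concentration that stops growth completely.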

Assays:
Test in all cases: NCI anticancer screen, dose series, 48 h
[1] = system: CCRF-CEM leukemia
[2] = system: HCT-15 colon
[3] = system: HOP-62 NSCLC
[4] = system: LOX IMVI melanoma
[5] = system: MDA-MB-231 breast
[6] = system: NCI-H460 lung
[7] = system: PC-3 prostate
[8] = system: SK-MEL-28 melanoma
[9] = system: SN12C renal
[10] = system: SNB-19 CNS

SMILES | GI50 [1] | TGI [1] | GI50 [2] | TGI [2] | GI50 [3] | TGI [3] | GI50 [4] | TGI [4] | GI50 [5] | TGI [5] | GI50 [6] | TGI [6] | GI50 [7] | TGI [7] | GI50 [8] | TGI [8] | GI50 [9] | TGI [9] | GI50 [10] | TGI [10]
C=C1C(O)C2C(=C(CCc3ccccc3)C13CC3)C(=O)C(C)(CO)C2O (stereo not given) | > 100 µM | > 100 µM | > 100 µM | > 100 µM | > 100 µM | > 100 µM | > 100 µM | > 100 µM | > 100 µM | > 100 µM | > 100 µM | > 100 µM | > 100 µM | > 100 µM | > 100 µM | > 100 µM | > 100 µM | > 100 µM | > 100 µM | > 100 µM
COc1ccc(-c2cn[nH]c2-c2cc(OC)c3c(c2)OCO3)cc1 | 0.266 µM | 21.3 µM | 0.0794 µM | 14.4 µM | 0.309 µM | 24.1 µM | 0.599 µM | 19.2 µM | 0.643 µM | 8.35 µM | 0.335 µM | 11.3 µM | 0.262 µM | 21.8 µM | 1.22 µM | 28.5 µM | 1.1 µM | 27.7 µM | 2.97 µM | 54.6 µM
COC(=O)[C@@H](C)C[C@H](Cc1ccccc1)NC(=O)c1csc(CC[C@H](C(C)C)N(C)C(=O)[C@@H](NC(=O)[C@H]2CCCCN2C)C(C)C)n1 | 0.295 µM | > 33.3 µM | 0.604 µM | > 33.3 µM | 0.536 µM | > 33.3 µM | 0.373 µM | > 33.3 µM | 0.318 µM | > 8.8 µM | 0.381 µM | > 14.5 µM | 0.383 µM | > 33.3 µM | 1.45 µM | > 33.3 µM | 0.435 µM | > 33.3 µM | 0.168 µM | > 33.3 µM
CCN(Cc1cccc(F)c1)c1ccc(CO)c(Cl)c1 | 24 µM | > 80.7 µM | 14.5 µM | > 100 µM | 1.02 µM | > 37.6 µM | 14.1 µM | 28.8 µM | 19 µM | > 55.3 µM | 0.306 µM | 18 µM | 21.8 µM | > 82.5 µM | 16.2 µM | 45.5 µM | 14.6 µM | > 50.5 µM | 21.8 µM | > 92.6 µM
COc1cccc(-c2nc3sccn3c2-c2ccnc(NCCCNS(=O)(=O)c3cccc(F)c3)c2)c1 | 2.26 µM | > 100 µM | 2.63 µM | > 100 µM | 2.83 µM | 29.1 µM | 2.63 µM | 14.8 µM | 3.62 µM | > 100 µM | 4.04 µM | > 100 µM | 2.12 µM | 11.6 µM | 2.96 µM | 9.82 µM | 2.94 µM | > 100 µM | 5.6 µM | > 100 µM
Clc1nc(Cl)c2ncn(Cc3cccc(Cn4cnc5c(Cl)nc(Cl)nc54)c3)c2n1 | 2.25 µM | 5.32 µM | 5.78 µM | 22.3 µM | 4.97 µM | 18 µM | 2.23 µM | 5.57 µM | 2.66 µM | 7 µM | 3.7 µM | 13.6 µM | 3.99 µM | 13.6 µM | 4.25 µM | 22.1 µM | 4.73 µM | 18.3 µM | 3.02 µM | 13.7 µM
Cc1nc(SCC(=O)Nc2nc(-c3ccc(Cl)cc3)cs2)n(Nc2ccccc2)c1C | 5.49 µM | > 100 µM | 5.74 µM | 23.3 µM | 3.06 µM | 9.63 µM | 1.78 µM | 3.72 µM | 3.01 µM | 15.2 µM | 2.89 µM | 11 µM | 2.34 µM | 11 µM | 10.1 µM | 24.6 µM | 2.38 µM | 10.1 µM | 9.41 µM | 24.6 µM
Cc1cnc(NC(=O)Nc2cc(Br)c(C)cc2OC[C@@H]2CNCCO2)cn1 | 0.321 µM and 0.259 µM | 9.48 µM and 1.23 µM | 1.65 µM and 2.38 µM | > 10 µM and 12.8 µM | 0.539 µM and 1.65 µM | > 10 µM and 14.2 µM | 0.828 µM and 1.45 µM | 2.46 µM and 4.97 µM | 2.96 µM and 1.48 µM | > 10 µM and 7.39 µM | 1.47 µM and 0.928 µM | > 10 µM and 5.79 µM | 5.77 µM and 3.73 µM | > 10 µM and 16.4 µM | 2.21 µM and 2.44 µM | 6.65 µM and 6.88 µM | 3.8 µM and 2.5 µM | > 10 µM and 12.1 µM | 2.52 µM and 1.42 µM | > 10 µM and 14.3 µM
CN[C@H]1C=C[C@@H]2/C=C(C)/C=C/[C@@H](C)[C@H]([C@H](C)[C@H](O)[C@@H](C)NC(C)=O)OC(=O)/C=C/C=C(C)\C=C\[C@]2(C)C1 | 6.16 µM | > 49 µM | 0.0906 µM and 0.0814 µM | > 49 µM | 0.00765 µM | > 49 µM | 0.0049 µM | 0.00504 µM | 0.0049 µM | 9.97 µM | 0.0107 µM | > 49 µM | 0.0049 µM | > 49 µM | 0.00898 µM | 33.6 µM | 0.00633 µM | > 49 µM | 0.0795 µM and 0.0718 µM | > 49 µM
CC(C)CCC(=O)c1ccoc1 | – | > 100 µM | – | > 100 µM | – | > 100 µM | – | > 100 µM | – | > 100 µM | – | > 100 µM | – | > 100 µM | – | > 100 µM | – | > 100 µM | – | > 100 µM
Cc1sc2nc(-c3ccncc3)c(/C=N/N=C(N)N)n2c1C | 63 µM | > 100 µM | > 100 µM | > 100 µM | 33.9 µM | > 100 µM | 28.2 µM | 78 µM | 25.3 µM | 61.5 µM | 27.3 µM | > 100 µM | 58.4 µM | > 100 µM | 68.9 µM | > 100 µM | 16.9 µM | 51.6 µM | 36.3 µM | > 100 µM
Cc1nn(-c2nc3ccccc3[nH]2)c(N)c1-c1ccc(Cl)cc1 | 2.92 µM | > 100 µM | 3.88 µM | > 100 µM | 7.29 µM | > 100 µM | 5.02 µM | > 100 µM | 4.5 µM | > 100 µM | 2.96 µM | > 100 µM | 2.97 µM | > 100 µM | 20.9 µM | > 100 µM | 5.52 µM | > 100 µM | 4.14 µM | > 100 µM
